# According to patent US20200062696A1, “COMPOSITIONS AND METHODS FOR INHIBITING RETICULON 4” (THE REGENTS OF THE UNIVERSITY OF CALIFORNIA, priority 2017, published 2020):
# Biological target: T1, C1101 in reticulon 4 (RTN4, Uniprot ID Q9NQC3-1) (Homo sapiens, UniProt Q9NQC3)
# T1 construct: endogenous in cells; host or cells: SW620 colorectal cancer cell lysate
# T1 sequence (Q9NQC3 1-1192): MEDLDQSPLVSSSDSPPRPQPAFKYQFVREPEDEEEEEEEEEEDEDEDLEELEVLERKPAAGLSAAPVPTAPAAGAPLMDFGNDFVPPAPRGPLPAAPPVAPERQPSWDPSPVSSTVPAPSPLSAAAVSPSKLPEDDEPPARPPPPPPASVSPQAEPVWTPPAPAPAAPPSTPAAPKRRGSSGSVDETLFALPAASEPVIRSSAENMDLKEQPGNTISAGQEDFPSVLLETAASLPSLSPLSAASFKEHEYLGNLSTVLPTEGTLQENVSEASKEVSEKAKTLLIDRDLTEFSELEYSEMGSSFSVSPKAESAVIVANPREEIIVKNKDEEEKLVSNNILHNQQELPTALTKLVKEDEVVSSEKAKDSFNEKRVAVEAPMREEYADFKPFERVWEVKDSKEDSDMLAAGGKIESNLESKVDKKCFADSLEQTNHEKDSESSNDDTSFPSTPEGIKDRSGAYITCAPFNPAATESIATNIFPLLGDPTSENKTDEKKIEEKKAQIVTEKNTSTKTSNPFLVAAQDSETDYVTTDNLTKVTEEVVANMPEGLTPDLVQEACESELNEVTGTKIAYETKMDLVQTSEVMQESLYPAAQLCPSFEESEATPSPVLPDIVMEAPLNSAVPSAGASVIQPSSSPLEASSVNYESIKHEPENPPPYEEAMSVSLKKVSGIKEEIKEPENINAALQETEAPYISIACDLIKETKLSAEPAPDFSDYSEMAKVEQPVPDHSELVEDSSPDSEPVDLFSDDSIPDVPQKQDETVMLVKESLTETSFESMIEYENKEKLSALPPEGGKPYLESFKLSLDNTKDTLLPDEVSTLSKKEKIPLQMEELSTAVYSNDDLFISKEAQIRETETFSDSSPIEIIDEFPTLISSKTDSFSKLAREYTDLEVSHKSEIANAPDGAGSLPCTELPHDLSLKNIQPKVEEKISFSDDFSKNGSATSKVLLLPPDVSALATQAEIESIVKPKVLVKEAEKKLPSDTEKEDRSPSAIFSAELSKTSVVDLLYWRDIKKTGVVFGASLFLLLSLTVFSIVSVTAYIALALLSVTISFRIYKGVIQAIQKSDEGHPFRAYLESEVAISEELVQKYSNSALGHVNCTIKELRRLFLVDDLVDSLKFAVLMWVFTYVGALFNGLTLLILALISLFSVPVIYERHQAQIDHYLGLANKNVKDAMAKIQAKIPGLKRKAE
# Experiment: Competitive isoTOP-ABPP against IAyne labeling in SW620 proteomes: RTN4 C1101
# Assay type: binding
# Text: We next performed isoTOP-ABPP studies to identify the direct targets of these lead compounds. We competed either vehicle or DKM 3-30 against labeling of SW620 proteomes with a broad cysteine-reactive probe, iodoacetamide-alkyne (IAyne), followed by appending probe-labeled proteins with a biotin-azide tag bearing a TEV protease recognition site and an isotopically light (for vehicle-treated) or heavy (for fragment-treated) tags via copper catalyzed azide-alkyne cycloaddition (CuAAC)^6,9. We then combined control and treated proteomes in a 1:1 ratio, enriched probe-labeled proteins with avidin, and digested proteomes with trypsin. Avidin-enriched probe-modified tryptic peptides were released by TEV protease digestion for subsequent quantitative proteomic analysis. Through these studies, we identified the top hit for DKM 3-30 as C1101 in reticulon 4 (RTN4, Uniprot ID Q9NQC3-1) with a light to heavy ratio of 3.0 (FIG. 2A; Table 2).
# IsoTOP-ABPP Analysis. IsoTOP-ABPP analyses were performed as previously described^5-7. For competitive IsoTOP-ABPP, SW620 cell lysates were pre-incubated with DMSO vehicle or DKM 3-30 (50 μM) for 30 min at 37° C. in phosphate-buffered saline (PBS), and then labeled with IAyne (100 μM) for 1 h at room temperature. […]
structure (smiles),measurement,setting,value
"C=CC(=O)Nc1ccc(Oc2ccc(Cl)cc2)cc1 [DKM 3-30, N-(4-(4-chlorophenoxy)phenyl)acrylamide]",light to heavy ratio,"DKM 3-30 50 μM, 30 min 37° C., then IAyne 100 μM, ratio >3 indicates bound sites",3.0
same,"Ave area ratio (light to heavy ratio), peptide YSNSALGHVNC*TIK, C1101, Q9NQC3","SW620 cell proteomes pre-treated with DMSO (light) or ligand 50 μM (heavy) 30 min at 37° C., then IAyne 100 μM 1h, averaged over runs",3.04
